Results from patent US6831199B1, “Pyrimidine compounds and derivatives thereof” (G. D. Searle & Co., priority 1995, dated 2004).
Counter-ions that a name gives are not always drawn. Like-named read-outs stand apart in the source and are kept apart here.

Legend:
M21 human melanoma cells = assay: M21 melanoma cell adhesion assay (αvβ3-dependent adhesion to human fibrinogen-coated plates); type: cell-based; conditions: read-out: M21 Melanoma Cells IC50
Method: M21 MELANOMA CELL ADHESION ASSASY
This assay involves an αvβ3-dependent adhesion of M21 human melanoma cells to human fibrinogen-coated plastic tissue culture dishes.
Fibrinogen was purified from human plasma. Fibronectin and plasminogen were eliminated from the preparation by passing the sample over gelatin-sepharose 4B and lysine-sepharose 4B resins, respectively. The fibrinogen is diluted to 10 μg/mL in coating buffer ([…] Tris-HCl, 150 mM NaCl, pH 7.4). 100 μL of diluted fibrinogen is added to each well of a 96-well Immulon 2 microtiter plate (Dynatech; Chantilly, Va.) and allowed to coat overnight at 4° C. Plates are blocked with 1% BSA (Miles/Pentex; Kankakee, Ill.) in adhesion buffer (Hank's balanced salt solution without Ca^++ or Mg^++ [HBSS−−], 50 mM Hepes, 1 mg/mL BSA, pH 7.4) for 1 hour at 37° C.
M21 human melanoma cells were provided by Dr. J. Smith, La Jolla Cancer Research Institute. M21 cells are harvested from tissue culture flasks by washing with HBSS−− and adding cell dissociation solution (Sigma) and incubating for 5 minutes at 37° C. Harvested cells are washed 3 times with adhesion assay buffer containing 200 μM Mn^++. Cells are counted and suspended to a density of 2×10^6/mL in adhesion assay buffer containing 200 μM Mn^++. M21 cells are pre-incubated with antagonists of αvβ3 for 30 minutes at room temperature. Following the pre-incubation, the solutions containing a mixture of cells and antagonists are added to each well of the microtiter plate and allowed to bind for 30 minutes at 37° C.
Following adhesion, plates are gently washed 3 times with 200 μL of wash buffer (50 mM Tris-HCl, 150 mM NaCl, pH 7.4) using large bore pipet tips. Plates are briefly blotted dry and 100 μL of cell lysis buffer (50 mM sodium acetate, pH 5.0, 0.5% Triton X-100, 0.3 mg/mL p-nitrophenyl phosphate [Sigma] is added to each well. Plates are incubated for 60 minutes at 37° C. and 50 μL of 1N NaOH is added to stop the reaction. The absorbance of the wells at […] is read using an automatic plate reader.

[1] = target: T1, Human vitronectin receptor (αvβ3) (Homo sapiens, UniProt P05106+P06756); assay: Vitronectin adhesion assay (solid phase receptor assay, competition with biotinylated vitronectin); type: binding; conditions: read-out: AvB3 IC50
T1 construct: Human vitronectin receptor (αvβ3) was purified from human placenta; from tissue; host or cells: human placenta
Summary of the method: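 Purified human αvβ3 coated overnight at 4 °C in TBS with 1.0 mM Ca++, Mg++, Mn++, pH 7.4; compounds (top final 1.0×10^−4 M) competed with 1 nM biotinylated vitronectin for 2 h at room temperature. Bound ligand detected by HRP anti-biotin/OPD at A450; values normalized to no-competitor controls, four-parameter curve fit.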

platelet rich plasma = assay: Human platelet rich plasma assay (ADP induced platelet aggregation); type: cell-based; conditions: Homo sapiens, Platelet, ADP induced platelet aggregation in human platelet rich plasma; read-out: Human PRP
Summary of the method: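 Citrated platelet-rich plasma from aspirin-free healthy human donors was stirred at 37 °C and preincubated with compound for 1 min. Aggregation was then triggered with ADP (added as a 200 uM solution) and recorded photometrically for 3 min. Dose–response curves were built from % inhibition of the maximal saline-control response.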

Row | Structure (SMILES) | IC50 (M21 human melanoma cells; hydrochloride salt) | IC50 [1] | IC50 (platelet rich plasma) | IC50 (M21 human melanoma cells; Homo sapiens, M21)
1 | C#C[C@@H](CC(=O)O)NC(=O)CNC(=O)c1cccc(NC(=N)N)c1 [Example 43, 3R-[[2-[[[(3-[(aminoiminomethyl)amino]phenyl]carbonyl]amino]acetyl]amino]-4-pentynoic acid, hydrochloride salt] | 0.188 µM | 0.0283 µM | > 200 µM | –
2 | C#C[C@H](CC(=O)O)NC(=O)CNC(=O)c1cccc(NC(=N)N)c1 [Example 45, 3S-[[2-[[[3-[(aminoiminomethyl)amino]phenyl]carbonyl]amino]acetyl]amino]-4-pentynoic acid, hydrochloride salt] | 0.00254 µM | 0.00069 µM | 167 µM | –
3 | NC(=O)Nc1cccc(C(=O)NCC(=O)NC(CC(=O)O)c2cccnc2)c1 (stereo not drawn) [Example 46, β-[[2-[[[3-(aminocarbonylamino)phenyl]carbonyl]amino]acetyl]amino]pyridine-3-propanoic acid, hydrochloride salt] | – | 0.00534 µM | > 200 µM | 0.147 µM
4 | Cc1ccc(S(=O)(=O)NCC(CC(=O)O)NC(=O)CNC(=O)c2cccc(NC(=N)N)c2)cc1 (stereo not drawn) [Example 65, 3-[[2-[[[3-[(aminoiminomethyl)amino]phenyl]carbonyl]amino]acetyl]amino]-4-[[(4-methylphenyl)sulfonyl]amino]butanoic acid, trifluoroacetate salt] | – | 0.0097 µM | > 200 µM | 0.0138 µM
5 | N=C(N)Nc1cccc(C(=O)NCC(=O)N[C@@H](CC(=O)O)CS(=O)(=O)c2ccccc2C(=O)O)c1 [Example 71, 2-[[2S-[[2-[[[3-[(aminoiminomethyl)amino]phenyl]carbonyl]amino]acetyl]amino]-2-(carboxymethyl)ethyl]sulfonyl]benzoic acid, TFA salt] | – | 0.0204 µM | > 200 µM | 1.04 µM
6 | N=C(N)Nc1cccc(C(=O)NCC(=O)NC(CC(=O)O)c2cnc3ccccc3c2)c1 (stereo not drawn) [Example 99, β-[[2-[[[3-[(aminoiminomethyl)amino]phenyl]carbonyl]amino]acetyl]amino]quinoline-3-propanoic acid, bis(trifluoroacetate)salt] | – | 0.00038 µM | 57.5 µM | 0.00049 µM
7 | NC(=S)Nc1cccc(C(=O)NCC(=O)NC(CC(=O)O)c2cccnc2)c1 (stereo not drawn) [Example 114, β-[[2-[[[3-[(aminothioxomethyl)amino]phenyl]carbonyl]amino]acetyl]amino]pyridine-3-propanoic acid, trifluoroacetate salt] | – | 0.00326 µM | > 200 µM | 0.2 µM
